Data published in patent publication US20240343717A1, “MICROBIOCIDAL PYRAZOLE DERIVATIVES” (SYNGENTA CROP PROTECTION AG, priority 2021, published 2024).

Experiments:
[1] = tested on: Puccinia recondita f. sp. tritici; experiment: Puccinia recondita f. sp. tritici / wheat / leaf disc curative (brown rust); format: in vivo; settings: 200 ppm, wheat leaf segments, applied 1 day after inoculation
Procedure: Example B11: Puccinia recondita f. Sp. Tritici/Wheat/Leaf Disc Curative (Brown Rust)
Wheat leaf segments cv. Kanzler are placed on agar in multiwell plates (24-well format). The leaf segments are inoculated with a spore suspension of the fungus. Plates are stored in darkness at 19° C. and 75% rh. The formulated test compound diluted in water is applied 1 day after inoculation. The leaf segments are incubated at 19° C. and 75% rh under a light regime of 12 h light/12 h darkness in a climate cabinet and the activity of a compound is assessed as percent disease control compared to untreated when an appropriate level of disease damage appears in untreated check leaf segments (6-8 days after application).

[2] = tested on: Monographella nivalis (Microdochium nivale); experiment: Monographella nivalis (Microdochium nivale) / liquid culture (foot rot cereals); format: cell-based; settings: growth inhibition photometrically 4-5 days after application, read-out: control of Monographella nivalis
Outline: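 Fungal conidia mixed directly into potato dextrose broth and added to test compound delivered in DMSO. Incubated at 24° C; growth inhibition read photometrically 4-5 days after application.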

[3] = tested on: Pyrenophora teres; experiment: Pyrenophora teres / barley / leaf disc preventative (net blotch); format: in vivo; settings: foliar, barley leaf segments, inoculated 2 days after application
Outline: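 Barley cv. Hasso leaf segments on agar sprayed with formulated compound, inoculated with spores 2 days later. Incubated at 20 °C, 65% rh, 12 h light/dark; disease control versus untreated assessed 5–7 days after application.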

[4] = tested on: Blumeria graminis f. sp. tritici (Erysiphe graminis f. sp. tritici); experiment: Blumeria graminis f. sp. tritici / wheat / leaf disc preventative (powdery mildew on wheat); format: in vivo; settings: foliar, wheat leaf segments, inoculated 1 day after application
Outline: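 Wheat cv. Kanzler leaf segments on agar sprayed with formulated compound in water, inoculated 1 day later by shaking mildew-infected plants overhead. Incubated at 20° C, 60% rh, 24 h dark then 12 h light/12 h dark. Percent disease control versus untreated scored 6-8 days after application.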

[5] = tested on: Alternaria solani; experiment: Alternaria solani / tomato / leaf disc (early blight); format: in vivo; settings: foliar, tomato leaf disks, sprayed 2 days before inoculation, compared to untreated control
Procedure: Example B1: Alternaria solani/Tomato/Leaf Disc (Early Blight) Tomato leaf disks cv. Baby are placed on agar in multiwell plates (24-well format) and sprayed with the formulated test compound diluted in water. The leaf disks are inoculated with a spore suspension of the fungus 2 days after application. The inoculated leaf disks are incubated at 23° C./21° C.

[6] = tested on: Botryotinia fuckeliana (Botrytis cinerea); experiment: Botryotinia fuckeliana (Botrytis cinerea) / liquid culture (gray mould); format: cell-based; settings: growth inhibition photometrically 3-4 days after application, read-out: control of Botryotinia fuckeliana
Outline: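 Conidia suspended in Vogels broth and added to compound dispensed from DMSO. Incubated at 24°C, with growth inhibition measured photometrically 3–4 days later.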

[7] = tested on: Glomerella lagenarium (Colletotrichum lagenarium); experiment: Glomerella lagenarium (Colletotrichum lagenarium) / liquid culture (anthracnose); format: cell-based; settings: Colletotrichum orbiculare, growth inhibition photometrically 3-4 days after application, read-out: control of Glomerella lagenarium
Outline: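 Cryo-stored conidia in potato dextrose broth were added to test compound in DMSO. Plates were incubated at 24° C, and growth inhibition was read photometrically 3-4 days after application.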

[8] = tested on: Mycosphaerella graminicola (Septoria tritici); experiment: Mycosphaerella graminicola (Septoria tritici) / liquid culture (Septoria blotch); format: cell-based; settings: Zymoseptoria tritici, growth inhibition photometrically 4-5 days after application, read-out: control of Mycosphaerella graminicola
Outline: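 Conidia suspended in potato dextrose broth and added to test compound supplied in DMSO in 96-well plates. Incubated at 24 °C, and growth inhibition read photometrically 4-5 days after application.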

## Cc1ccc(C(C)(CNC(=O)c2cc(-c3ccc(F)cc3F)on2)c2cnn(C)c2)nc1 (centres unmarked) [Compound P-19, 5-(2,4-difluorophenyl)-N-[2-(1-methylpyrazol-4-yl)-2-(5-methyl-2-pyridyl)propyl] isoxazole-3-carboxamide]
[1]
  control of Puccinia recondita f. sp. tritici: at least 80%
[2]
  inhibition of growth at 20 ppm: ≥ 80%
[3]
  pest or weed control at 200 ppm: ≥ 80%
[4]
  pest or weed control at 200 ppm: ≥ 80%
[5]
  pest or weed control at 200 ppm: ≥ 80%
[6]
  inhibition of growth at 20 ppm: ≥ 80%
[7]
  inhibition of growth at 20 ppm: ≥ 80%
[8]
  inhibition of growth at 20 ppm: ≥ 80%
